Experiments:
[1] = system: tobacco leaves; assay: Effect of peptide infiltration on tobacco leaves; type: in vivo; details: for Diameter of necrotic area in infiltrated tobacco leaves: 100 μL infiltrated, after 48 h
Description: BP100 and the 36 lipopeptides were evaluated for their effect upon infiltration on tobacco leaves as described previously. Peptide solutions of 50, 150 and 250 μM were infiltrated (100 μL) into the mesophylls of fully expanded tobacco leaves. Infiltrations were carried out in a single leaf, and for each peptide and dose, at least three leaves randomly distributed in different plants were inoculated. Control infiltrations with water (negative control) or melittin (positive control) at the same molar concentration were performed. The appearance of symptoms on the leaves was followed for 48 h after infiltration and measured as a lesion diameter.

[2] = system: T1, proteinase K; assay: Susceptibility to protease degradation; type: in vitro ADME; details: proteinase K (isolated protease) in TRIS buffer; 50 μg/mL peptide, 1 μg/mL proteinase K, 100 mM TRIS buffer pH 7.6, 25°C, 60 min; decrease of HPLC peak area (220 nm); read-out: Digestion with proteinase K (percentage of degraded peptide)
T1 construct: purchased Sigma-Aldrich Corporation, Spain
Description: Digestion of BP100 and of 16 selected lipopeptides was carried out by treating 50 μg/mL peptide with 1 μg/mL proteinase K (Sigma-Aldrich Corporation, Spain) in 100 mM TRIS buffer, pH 7.6, at 25°C. The peptide cleavage after 60 min was determined by HPLC using a Kromasil (4.6 × 40 mm; 3 μm particle size) C18 reverse-phase column. Linear gradients of 0.1% aqueous TFA and 0.1% TFA in CH3CN were run from 0.98:0.02 to 0:1 over 12 min with UV detection at 220 nm. Digestion was estimated as the percentage of degraded lipopeptide calculated from the decrease of the HPLC peak area of the native peptide.

[3] = system: Penicillium expansum EPS26; assay: MIC, antifungal growth inhibition in microtiter plates (PDB); type: cell-based; details: Pe, 22°C, seven days, OD 600 nm, lowest concentration with no growth, given as interval of tested concentrations, three replicates, experiment repeated twice
In short: (§1)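 Conidial suspensions (10^3 conidia/mL P. expansum, 10^4 F. oxysporum) incubated with peptides in PDB with 0.003% chloramphenicol at 22 °C for seven days, OD600 read every 2 h. MIC is the lowest concentration with no growth at the end; triplicates, experiment repeated twice.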

[4] = system: Fusarium oxysporum f. sp. lycopersici FOL 3 race 2; assay: as above; type: cell-based; details: Fo, 22°C, seven days, OD 600 nm, lowest concentration with no growth, given as interval of tested concentrations, three replicates, experiment repeated twice
In short: as §1

[5] = system: Erwinia amylovora PMV6076; assay: MIC, growth inhibition in microtiter plates (TSB); type: cell-based; details: Ea, 25°C, 48 h, OD 600 nm, lowest concentration with no growth, given as interval of tested concentrations, three replicates, experiment repeated twice
In short: (§2)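 The MIC is the lowest peptide concentration showing no growth after 48 h at 25 °C, with growth followed hourly by OD600 in TSB (triplicate wells, experiment repeated twice). Inocula came from 10^8 CFU mL^-1 suspensions of cells grown 24 h, or 48 h for X. fragariae, at 25 °C.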

[6] = system: Pseudomonas syringae pv. actinidiae Psa3700.1.1; assay: MIC, growth inhibition in microtiter plates (TSB); type: cell-based; details: Psa, 25°C, 48 h, OD 600 nm, lowest concentration with no growth, given as interval of tested concentrations, three replicates, experiment repeated twice
In short: as §2

[7] = system: Pseudomonas syringae pv. syringae EPS94; assay: MIC, growth inhibition in microtiter plates (TSB); type: cell-based; details: Pss, 25°C, 48 h, OD 600 nm, lowest concentration with no growth, given as interval of tested concentrations, three replicates, experiment repeated twice
In short: as §2

[8] = system: Xanthomonas fragariae Xf349-9A; assay: MIC, growth inhibition in microtiter plates (TSB); type: cell-based; details: Xf, 25°C, 48 h, OD 600 nm, lowest concentration with no growth, given as interval of tested concentrations, three replicates, experiment repeated twice
In short: as §2

[9] = system: Xanthomonas arboricola pv. pruni CFBP5563; assay: MIC, growth inhibition in microtiter plates (TSB); type: cell-based; details: Xap, 25°C, 48 h, OD 600 nm, lowest concentration with no growth, given as interval of tested concentrations, three replicates, experiment repeated twice
In short: as §2

[10] = system: Xanthomonas axonopodis pv. vesicatoria 2133–2; assay: MIC, growth inhibition in microtiter plates (TSB); type: cell-based; details: Xav, 25°C, 48 h, OD 600 nm, lowest concentration with no growth, given as interval of tested concentrations, three replicates, experiment repeated twice
In short: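 OD600 readout, hourly over 48 h at 25°C, 20 s shaking; TSB medium; inoculum from 10^8 CFU mL^-1 water suspension; triplicates, experiment run twice; MIC = lowest concentration showing no growth at endpoint.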

| Structure (SMILES) | Size of the lesions in infiltrated tobacco leaves (diameter) ([1]; 250 μM, 100 μL infiltrated into mesophyll, measured after 48 h) | metabolised at 1 h, 50 μg/mL [2] | MIC [3] | MIC [4] | MIC [5] | MIC [6] | MIC [7] | MIC [8] | MIC [9] | MIC [10] | Diameter of necrotic area in infiltrated tobacco leaves ([1]; 50 μM) | Diameter of necrotic area in infiltrated tobacco leaves ([1]; 250 μM) |
| --- | --- | --- | --- | --- | --- | --- | --- | --- | --- | --- | --- | --- |
| CCCCCC(=O)NCCCC[C@H](NC(=O)[C@H](CCCCN)NC(=O)[C@H](CCCCN)NC(C)=O)C(=O)N[C@@H](Cc1ccccc1)C(=O)N[C@@H](CCCCN)C(=O)N[C@@H](CCCCN)C(=O)N[C@H](C(=O)N[C@@H](CC(C)C)C(=O)N[C@@H](CCCCN)C(=O)N[C@@H](Cc1ccc(O)cc1)C(=O)N[C@@H](CC(C)C)C(N)=O)[C@@H](C)CC [BP370, Ac-KKK(COC5H11)FKKILKYL-NH2] | 5.0 ± 1.6 mm | 26% | 6.2 to 12.5 µM | 0.8 to 1.6 µM | 3.1 to 6.2 µM | 3.1 to 6.2 µM | 3.1 to 6.2 µM | 6.2 to 12.5 µM | 3.1 to 6.2 µM | 3.1 to 6.2 µM |  |  |
| CC[C@H](C)[C@H](NC(=O)CN)C(=O)NCC(=O)N[C@@H](C)C(=O)N[C@H](C(=O)N[C@@H](CC(C)C)C(=O)N[C@@H](CCCCN)C(=O)N[C@H](C(=O)N[C@@H](CC(C)C)C(=O)N[C@H](C(=O)N[C@H](C(=O)NCC(=O)N[C@@H](CC(C)C)C(=O)N1CCC[C@H]1C(=O)N[C@@H](C)C(=O)N[C@@H](CC(C)C)C(=O)N[C@H](C(=O)N[C@@H](CO)C(=O)N[C@@H](Cc1c[nH]c2ccccc12)C(=O)N[C@H](C(=O)N[C@@H](CCCCN)C(=O)N[C@@H](CCCNC(=N)N)C(=O)N[C@@H](CCCCN)C(=O)N[C@@H](CCCNC(=N)N)C(=O)N[C@@H](CCC(N)=O)C(=O)N[C@@H](CCC(N)=O)C(N)=O)[C@@H](C)CC)[C@@H](C)CC)[C@@H](C)O)[C@@H](C)O)C(C)C)C(C)C [melittin, reference compound] |  |  |  |  |  |  |  |  |  |  | 1.1 cm | 2.3 cm |
| CCCCCC(=O)NCCCC[C@H](NC(=O)[C@H](Cc1ccccc1)NC(=O)[C@H](CC(C)C)NC(=O)[C@H](CCCCN)NC(=O)[C@H](CCCCN)NC(C)=O)C(=O)N[C@@H](CCCCN)C(=O)N[C@H](C(=O)N[C@@H](CC(C)C)C(=O)N[C@@H](CCCCN)C(=O)N[C@@H](Cc1ccc(O)cc1)C(=O)N[C@@H](CC(C)C)C(N)=O)[C@@H](C)CC [BP372, Ac-KKLFK(COC5H11)KILKYL-NH2] |  |  | 6.2 to 12.5 µM | 0.8 to 1.6 µM | 6.2 to 12.5 µM | 6.2 to 12.5 µM | 6.2 to 12.5 µM | 3.1 to 6.2 µM | 3.1 to 6.2 µM | 6.2 to 12.5 µM |  |  |
| CCCCCCCCCCCC(=O)NCCCC[C@H](NC(=O)[C@H](Cc1ccc(O)cc1)NC(=O)[C@H](CCCCN)NC(=O)[C@H](CC(C)C)NC(=O)[C@@H](NC(=O)[C@H](CCCCN)NC(=O)[C@H](CCCCN)NC(=O)[C@H](Cc1ccccc1)NC(=O)[C@H](CC(C)C)NC(=O)[C@H](CCCCN)NC(=O)[C@H](CCCCN)NC(C)=O)[C@@H](C)CC)C(N)=O [BP402, Ac-KKLFKKILKYK(COC11H23)-NH2] |  |  | 12.5 to 25 µM | 6.2 to 12.5 µM | 3.1 to 6.2 µM | 3.1 to 6.2 µM | 3.1 to 6.2 µM | 3.1 to 6.2 µM | 1.6 to 3.1 µM | 1.6 to 3.1 µM |  |  |

— publication PMC6063448, “Antimicrobial activity of linear lipopeptides derived from BP100 towards plant pathogens” (PLoS ONE, 2018)
